Results as given in patent US9079906B2, “Triazolopyridazines as PAR1 inhibitors, production thereof, and use as medicaments” (Sanofi, priority 2008, dated 2015).
Counter-ions that a name gives are not always drawn.

molecular target: T1, PAR1 (Homo sapiens (Human), UniProt P25116); test: Inhibition of PAR1-mediated platelet aggregation induced by TRAP; format: cell-based; details: TRAP-induced aggregation of washed platelets from healthy volunteer donors, 96-well format
Protocol: PAR1 determination method: inhibition of PAR1-mediated platelet aggregation
The pharmacological testing of the substances took place in platelet aggregation induced by TRAP (thrombin receptor-activating peptide) in 96-well format. For this purpose, blood was taken from healthy volunteer donors in 20 ml syringes containing 2 ml of 3.13% sodium citrate solution. After centrifugation at 150×g for 20 minutes, the platelet-rich plasma (PRP) was separated off and mixed with 1 μl of PGE1 solution (500 μg/ml in ethanol)/ml of PRP. Incubation at RT for 5 minutes was followed by centrifugation at 120×g for 15 minutes to remove the leukocytes. The leukocyte-free PRP was transferred in 5 ml portions into 15 ml PP tubes and centrifuged at 360×g for 15 minutes in order to pellet the platelets. The plasma was then decanted off and the platelet sediment from 5 ml of PRP was resuspended in 1 ml of Tyrode's (120 mM NaCl, 2.6 mM KCl, 12 mM NaHCO3, 0.39 mM NaH2PO4×H2O, 10 mM HEPES, 0.35% BSA, 5.5 mM glucose, pH 7.4) and adjusted with Tyrode's to a platelet count of 3×10^5/microliter (μL). 13 ml of this cell suspension were then mixed with 866 μL of 10 mM CaCl2 solution, and 120 μL thereof were pipetted into each well of a 96-well plate containing 15 μL of the substance to be tested. After incubation at room temperature in the dark for 30 minutes, 15 μL of a TRAP solution (70-100 μM) were added as agonist, and kinetics were recorded at 650 nm in a SpectraMax 340 at 37° C. for 20 minutes while shaking. The areas under the curves of negative control (Tyrode's/DMSO) and positive control (15 μl of agonist/DMSO) were calculated and the difference was fixed as the 100% value. The substances to be tested were pipetted as serial dilutions in duplicate determination, the AUC was likewise determined for each substance concentration, and the % inhibition of the AUC compared with the control was calculated. On the basis of the % inhibition, the IC50 was calculated by nonlinear regression analysis according to the 4-parameter equation.

T1 sequence (P25116 22-425): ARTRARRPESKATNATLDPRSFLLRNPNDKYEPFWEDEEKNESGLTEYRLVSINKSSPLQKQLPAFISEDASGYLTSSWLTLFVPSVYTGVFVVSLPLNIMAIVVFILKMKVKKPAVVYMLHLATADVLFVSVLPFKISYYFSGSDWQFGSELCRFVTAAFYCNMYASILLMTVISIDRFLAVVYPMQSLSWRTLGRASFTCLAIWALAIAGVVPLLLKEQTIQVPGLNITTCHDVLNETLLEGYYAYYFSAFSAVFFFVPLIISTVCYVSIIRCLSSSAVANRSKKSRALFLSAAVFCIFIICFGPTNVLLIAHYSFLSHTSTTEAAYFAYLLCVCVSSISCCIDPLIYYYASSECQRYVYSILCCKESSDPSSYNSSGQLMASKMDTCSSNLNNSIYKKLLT

| SMILES | IC50 |
| --- | --- |
| CCC(CC)Oc1cc(C)c2nn(CC(=O)c3cc(OCCOC)cc(C(C)(C)C)c3)c(=N)n2n1 [Example 66, 1-[3-tert-butyl-5-(2-methoxy-ethoxy)phenyl]-2-[6-(1-ethylpropoxy)-3-imino-8-methyl-[1,2,4]triazolo[4,3-b]pyridazin-2-yl]ethanone hydrochloride] | 25 nM |
| CCOc1ccc2nn(CC(=O)c3cc(N4CCOCC4)c(OC)c(C(C)(C)C)c3)c(=N)n2n1 [Example 7, 1-(3-tert-butyl-4-methoxy-5-morpholin-4-ylphenyl)-2-(6-ethoxy-3-imino-[1,2,4]triazolo[4,3-b]pyridazin-2-yl)ethanone trifluoroacetic acid salt] | 158 nM |
| CCOc1ccc2nn(CC(=O)c3cc(N4CCOCC4)c(OC)c(C(F)(F)F)c3)c(=N)n2n1 [Example 5, 2-(6-Ethoxy-3-imino-[1,2,4]triazolo[4,3-b]pyridazin-2-yl)-1-(4-methoxy-3-morpholin-4-yl-5-trifluormethylphenyl)ethanone trifluoroacetic acid salt] | 8500 nM |
| CC(C)(C)c1cc(C(=O)Cn2nc3ccc(Cl)nn3c2=N)cc(C(C)(C)C)c1O [Example 2, 2-(6-chloro-3-imino-[1,2,4]triazolo[4,3-b]pyridazin-2-yl)-1-(3,5-di-tert-butyl-4-hydroxyphenyl)ethanone] | 1600 nM |
| CCC(CC)Oc1ccc2nn(CC(=O)c3cc(NC)cc(S(F)(F)(F)(F)F)c3)c(=N)n2n1 [Example 16, 2-[6-(1-ethylpropoxy)-3-imino-[1,2,4]triazolo[4,3-b]pyridazin-2-yl]-1-[3-methylamino-5-(pentafluorosulfanyl)phenyl]ethanone trifluoroacetic acid salt] | 127 nM |
| CCOc1ccc2nn(CC(=O)c3cc(NC(C)=O)cc(S(F)(F)(F)(F)F)c3)c(=N)n2n1 [Example 1, N-[3-[2-(6-Ethoxy-3-imino-[1,2,4]triazolo[4,3-b]pyridazin-2-yl)acetyl]-5-(pentafluorosulfanyl)phenyl]acetamide as the trifluoroacetic acid salt] | 650 nM |
| CCC(CC)Oc1cc(C)c2nn(CC(=O)c3cc(COCCCO)cc(C(C)(C)C)c3)c(=N)n2n1 [Example 77, 1-[3-tert-butyl-5-(3-hydroxy-propoxymethyl)phenyl]-2-[6-(1-ethylpropoxy)-3-imino-8-methyl-[1,2,4]triazolo[4,3-b]-pyridazin-2-yl]ethanone hydrochloride] | 9 nM |

Results, then the molecule that gave them:

| IC50 | SMILES |
| --- | --- |
| 59 nM | CCC(CC)Oc1nn2c(=N)n(CC(=O)c3cc(OC)cc(S(F)(F)(F)(F)F)c3)nc2c(C)c1C [Example 85, 2-[6-(1-ethylpropoxy)-3-imino-7,8-dimethyl-[1,2,4]triazolo[4,3-b]pyridazin-2-yl]-1-[3-methoxy-5-(pentafluorosulfanyl)-phenyl]ethanone trifluoroacetic acid salt] |
| 12 nM | CCC(CC)Oc1cc(C)c2nn(CC(=O)c3cc(OCCCO)cc(C(C)(C)C)c3)c(=N)n2n1 [Example 90, 1-[3-tert-butyl-5-(3-hydroxy-propoxy)phenyl]-2-[6-(1-ethyl-propoxy)-3-imino-8-methyl-[1,2,4]triazolo[4,3-b]pyridazin-2-yl]ethanone hydrochloride] |
| 334 nM | COCC(COC)Oc1cc(C)c2nn(CC(=O)c3cc(OCCO)cc(C(C)(C)C)c3)c(=N)n2n1 [Example 98, 1-[3-tert-butyl-5-(2-hydroxy-ethoxy)phenyl]-2-[3-imino-6-(2-methoxy-1-methoxymethyl-ethoxy)-8-methyl-[1,2,4]triazolo[4,3-b]pyridazin-2-yl]ethanone hydrochloride] |
| 16 nM | CCN(CC)c1cc(C)c2nn(CC(=O)c3cc(OC)cc(S(F)(F)(F)(F)F)c3)c(=N)n2n1 [Example 108, 2-(6-diethylamino-3-imino-8-methyl-[1,2,4]triazolo[4,3-b]pyridazin-2-yl)-1-[3-methoxy-5-(pentafluorosulfanyl)phenyl]-ethanone trifluoroacetic acid salt] |

molecular target: T1, PAR1; test: PAR1 binding test (radioligand displacement, membrane preparation); details: human PAR1 expressed in High Five insect cell membranes; radioligand 20 nM; read-out: Inhibition of binding IC50
Protocol: The synthesized substances were examined in a PAR1 binding test. This tested whether the substances can inhibit the binding of a radioactively labeled PAR1 agonist known from the literature at the PAR1 receptor (Ho-Sam Ahn, Mol Pharm, 51:350-356, 1997). The human PAR1 receptor was expressed transiently in High Five insect cells. From these cells, after 48 hours, a membrane preparation was produced by standard methods, aliquoted into 10 mM Tris-HCl; 0.3 mM EDTA; 1 mM EGTA; 250 mM sucrose pH 7.5, and stored at −80° C.
The substances were preincubated with the membrane at room temperature for 15 minutes, then the radioligand (ALA-(para-F-Phe)-Arg-ChA-homoArg-(3,4-^3H-Tyr)-NH2; approx. 40 Ci/mMol) was added. The end concentration of the radioligand in the test buffer (50 mM Tris-HCl; 10 mM MgCl2; 1 mM EGTA; 0.1% BSA; 2% DMSO) was 20 nM, that of the membrane 1 mg/ml. After an incubation time of 60 minutes, 25 μL of the mixture were transferred to a 96-well MultiScreenHTS FB microtiter filtration plate (from Millipore), which had been pretreated beforehand with a 0.75% aqueous polyethyleneimine solution for 5 hours at room temperature. Thereafter, with vacuum extraction, each well was washed four times with 300 μL of buffer (50 mM Tris-HCl; 10 mM MgCl2; 1 mM EGTA). The plate was then dried overnight, 100 μl of scintillator per well were added, and the plate was analyzed after 6 hours in a Wallac MicroBeta (from PerkinElmer) liquid scintillation counter. The nonspecific binding was determined in the presence of 100 μM SCH79797 (PAR-1 antagonist; from Tocris, Cat. No. 1592) and subtracted from all measurements. The 100% value used was a control without inhibitor. The % inhibition values of a substance dilution series were used to calculate the IC50 with the aid of nonlinear regression analysis according to the 4-parameter equation.

| IC50 | SMILES |
| --- | --- |
| 257 nM | CCOc1cc(C(C)(C)O)c2nn(CC(=O)c3cc(OCCCO)c(OC)c(C(C)(C)C)c3)c(=N)n2n1 [Example 168, 1-[3-tert-butyl-5-(3-hydroxy-propoxy)-4-methoxyphenyl]-2-[6-ethoxy-8-(1-hydroxy-1-methyl-ethyl)-3-imino-[1,2,4]triazolo[4,3-b]pyridazin-2-yl]ethanone hydrochloride] |
| 1100 nM | CCC(CC)Oc1ccc2nn(CC(=O)c3cc(OCC4CC4)cc(C(C)(C)C)c3)c(=N)n2n1 [Example 26, 1-(3-tert-butyl-5-cyclopropylmethoxyphenyl)-2-[6-(1-ethylpropoxy)-3-imino-[1,2,4]triazolo[4,3-b]pyridazin-2-yl]ethanone hydrochloride] |
